Values of other authors as cited in US20040122104A1 (Collegium Pharmaceutical, Inc., priority 2002, published 2004).
Where two headings read alike, the source gives them in different places.

Key:
[1] = intravenous, of 10 patients
[2] = approximately 400,000 patients
[3] = 75-100 mg/day twice daily for 8 weeks, 219 elderly patients
[4] = compared with SSRIs and tricyclic antidepressants
[5] = not given; remark: listed apart in the source
[6] = in vivo

| SMILES | metabolites as share of the concentration of the parent drug (liver metabolism) | number of chemically identified metabolites (liver metabolism) | time in which oral doses are absorbed and extensively distributed in the body (oral) [h] | patients reporting transient nausea [1] | toxicity in humans [2] | only adverse event reported more frequently than for imipramine recipients [3] | disturbances of REM sleep [4] | global pain score, mean value ([5]; 1-7 scale (1 very much improved, 4 unchanged, 7 very much worse), patients who reached endpoint) | participants who failed the dose escalation ([5]; BID-IR group (twice daily immediate release)) [%] | participants who failed the dose escalation ([5]; QD-IR group (once daily immediate release)) [%] | top three adverse events associated with discontinuation of treatment [6] |
| --- | --- | --- | --- | --- | --- | --- | --- | --- | --- | --- | --- |
| CCN(CC)C(=O)C1(c2ccccc2)CC1CN (centres unmarked) [milnacipran, Milnacipran] | about 10% | ten | 1 to 2 | five | non-toxic | nausea | only minor disturbances | 2.3 | 6 | 19 |  |
| CN[C@H]1CC[C@@H](c2ccc(Cl)c(Cl)c2)c2ccccc21 [sertraline] |  |  |  |  |  |  |  |  |  |  | nausea, insomnia, and diarrhea |
